Results as given in patent US6846670B2, “Genetically engineered herpes virus for the treatment of cardiovascular disease” (priority 2000, dated 2005).

Tests used:
[1] = tested on: human umbilical vein endothelial cells (HUVECs); experiment: MTT assay of HUVEC viability following viral exposure; format: cell-based
Description: To determine the appropriate dose for vascular gene transfer, human umbilical vein endothelial cells (HUVECs) were contacted with graded concentrations of HSV-1 for 120 min and viability was assessed using a standard 72 hr MTT assay, as described below.
Human umbilical vein endothelial cells (HUVECs; BioWhittaker/Clonetics) were suspended in complete medium EBM-2 (BioWhittaker #CC3 156) and singlequots of EGM-2 (#CC4176) and grown to 100% confluence in P75 flasks in a 37° C. incubator with humidified 5% CO2 For the passage of cells, all reagent pack contents (HBSS, Trypsin/EDTA, TNS; BioWhittaker CC-5034) were thawed in a 37° C. water bath and exhausted media was removed and discarded. HUVECs were washed with enough HBSS to cover them, trypsin/EDTA was added, and flasks were gently agitated under an inverted microscope. […]
A modified colorimetric assay based on the selective ability of living cells to reduce the yellow salt MTT (3-[4,5-dimethylthiozol-2-yl]-2,5 diphenyl tetrazolium bromide; Sigma Chemical Co.) to formazan was used to quantitate HUVEC viability following viral exposure. […] The formazan crystals were then dissolved in 0.1 ml DMSO (Sigma) and the absorbance measured at 515 nm using a microplate spectrophotometer (SpectraMax 340 004) interfaced with a personal computer (Apple Macintosh). This process was repeated after 72 hours and relative cell survival was calculated. […]

[2] = tested on: umbilical artery smooth muscle cells (UASMCs); experiment: MTT assay of UASMC viability following viral exposure and Acyclovir rescue; format: cell-based, human; details: UASMCs infected with R849 MOI=25, even with 10 μg/ml Acyclovir
Excerpt: A modified colorimetric assay based on the selective ability of living cells to reduce the yellow salt MTT (3-[4,5-dimethylthiozol-2-yl]-2,5 diphenyl tetrazolium bromide; Sigma Chemical Co.) to formazan was used to quantitate HUVEC and UASMC viability following viral exposure and rescue with Acyclovir (Abbott Laboratories).

[3] = tested on: established HSV-1 infection; experiment: Eradication of established R849 infection with Acyclovir in rabbit vein patch; format: in vivo
Excerpt: (§1) Its mechanism of action is believed to include penetration intracellularly, conversion initially to the monophosphate by viral thymidine kinases, then to the diphosphate by cellular guanylate kinase and, finally, to the triphosphate by various other cellular enzymes. Fully active Acyclovir triphosphate competes with the natural substrate, deoxyguanosine triphosphate, for a position in the DNA chain of the herpes virus. Once incorporated, it terminates DNA synthesis via (1) competitive inhibition of viral DNA polymerase, (2) incorporation into, and termination of, the growing viral DNA chain, and (3) inactivation of the viral DNA polymerase. Uninfected cells show only minimal uptake and phosphorylation of Acyclovir. The HSV strains used in this example retain tk activity and are thus highly susceptible to neutralization by Acyclovir. To test whether an established HSV-1 infection could be eradicated after completion of the desired therapeutic effect (of the recombinant HSV) in vivo, a rabbit model was used. […] Baseline serum Acyclovir, electrolyte, blood urea nitrogen, and creatinine levels were measured before initiation of Acyclovir treatment, on days 2, 5, and 10 after initiation of treatment, and at sacrifice. […]

[4] = Serum Acyclovir level and serum chemistry during Acyclovir therapy; format: in vivo, rabbit
Excerpt: as §1

Nc1nc2c(ncn2COCCO)c(=O)[nH]1 [Acyclovir, 12-amino-1,9-dihydro-9-[(2-hydroxy-ethoxy)methyl]-6H-purin-6-one]
relative 72 hr cell survival with Acyclovir ([1]; HUVECs infected with R849 MOI=25, Acyclovir 0.25 μg/ml): 45±5%
relative 72 hr cell survival with Acyclovir ([1]; HUVECs infected with R849 MOI=25, Acyclovir 0.5 μg/ml): 85±9%
rescue of infected cells with Acyclovir [2]: could not be rescued
cells with β-galactosidase activity after Acyclovir treatment ([3]; R849 4×10^8 pfu/ml vein patch, Acyclovir 75 mg/kg iv five days from week 1 plus oral, harvest at four weeks): < 1%
patency of treated vein patches after eradication of R849 infection ([3]; four weeks): remained widely patent
serum levels of Acyclovir ([4]; during Acyclovir therapy, rabbits): 9000 ± 4000 ng/mL
systemic toxicity by serum electrolytes, blood urea nitrogen and creatinine ([4]; throughout the study, rabbits with R849-infected patches on Acyclovir): no significant systemic toxicity
